Biological target: hBPGM (Homo sapiens (Human), UniProt P07738)
Test: BPGM Synthase Assay
Format: biochemical
Settings: Table 6 additional results; read-out: huBPGM: synthase Enzyme IC50
Experimental: Example B1. BPGM Synthase Assay
The following materials were used in this assay: deionized water; Bisphosphoglycerate mutase (BPGM; Standard Buffer: 50 mM Tris, 0.01% Tween 20, pH 7.4); BPGM Reaction Buffer (50 mM Tris, 0.01% Tween 20, 3.23 mM KH2PO4, pH 7.4); dithiothreitol (DTT; Stock solution: 100 mM in Standard Buffer); 384-Well Black Assay Plate (Corning, P/N 3575); DMSO; BPGM Stock Solution (500 nM in BPGM Standard Buffer); Glyceraldehyde 3-phosphate dehydrogenase (GAPDH; Stock Solution: 40 U/mL in 20 mM Tris-HCL Buffer with 20% Glycerol, 1 mM EDTA, 1 mM DTT); Glyceraldehyde 3-phosphate (GAP; Stock Solution: 20 mM in BPGM Standard Buffer); 3-PG Stock Solution (500 μM in BPGM Standard Buffer); Nicotinamide adenine dinucleotide (NAD; Stock Solution: 50 mM in BPGM Standard Buffer); Koningic Acid (1 mM Stock in DMSO); Resazurin Stock Solution (10 mM in DMSO); Diaphorase Stock Solution (40 U/mL in BPGM Standard Buffer); DTT Reaction Buffer (1 mM DTT in BPGM Reaction Buffer); Enzyme Solution (5 nM BPGM, 0.4 U/mL GAPDH in DTT Reaction Buffer); GAPDH Solution (0.4 U/mL GAPDH in DTT Reaction Buffer); Substrate Solution (2 mM NAD, 20 μM 3PG, 800 μM GAP in DTT Reaction Buffer); and Resazurin Solution (5 U/mL Diaphorase, 500 μM Resazurin in BPGM Standard Buffer).
To the assay plate was added Enzyme Solution (20 uL) to columns 2-22 and 24 of the assay plate. To columns 1 and 23 was added GAPDH Solution (20 uL). A separate compound plate was prepared at the desired concentrations and all wells were normalized with 5% DMSO. The compound plate was incubated for 30 minutes at RT. Next, the substrate solution (20 μL) was dispensed to all reaction wells and the plate was incubated for 60 minutes at RT. Koningic acid (1 μL) was added and the plate was incubated for 10 minutes at RT. During this time period, the NADH fluorescence was read at ex: 360/em: 460. Next, Resazurin Solution (10 μL) was added to all reaction wells and the plate was incubated for 30 minutes at RT. The resorufin fluorescence was then read at ex:544/em:590.

Sequence of hBPGM (P07738 whole entry, looked up): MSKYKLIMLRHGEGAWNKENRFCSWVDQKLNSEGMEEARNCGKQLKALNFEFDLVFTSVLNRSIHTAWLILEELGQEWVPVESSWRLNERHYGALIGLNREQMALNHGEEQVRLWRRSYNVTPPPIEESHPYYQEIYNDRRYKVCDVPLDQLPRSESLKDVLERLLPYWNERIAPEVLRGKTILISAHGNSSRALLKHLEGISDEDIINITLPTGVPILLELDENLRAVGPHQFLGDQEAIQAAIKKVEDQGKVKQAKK

| SMILES | IC50 [µM] |
| --- | --- |
| Cc1nc(COc2ncccn2)sc1-c1cccc(-c2cc(C(=O)O)nn2C(C)C)n1 [Example 30] | 15 |
| Cc1nc(COc2ncccn2)sc1-c1cccc(-c2ccc(C(=O)NCC(=O)N3CCC(C(=O)O)CC3)cc2)n1 [Example 90] | > 25 |
| Cc1nc(CO)sc1-c1cccc(-c2c[nH]c(C(=O)O)c2)n1 [Example 77] | > 25 |
| Cc1nc(C)c(N2CCN(c3ccc(C(=O)O)c(O)c3)C2=O)s1 [Example 339] | > 25 |
| Cc1nc(COc2ccc(F)cn2)sc1-c1cnn(-c2ccc(C(=O)O)cc2)n1 [Example 19] | 0.85 |
| COC(=O)NCc1nc(C)c(-c2csc(-c3ccc(C(=O)NS(=O)(=O)c4cccc(OCC(=O)O)c4)cc3)n2)s1 [Example 331] | > 25 |
| Cc1nc(C)c(-c2cc(-c3ccc(C(=O)O)cc3)ccc2O)s1 [Example 301] | > 250 |
| Cc1nc(COc2ncc(C(F)(F)F)cn2)sc1-c1cccc(-c2ccc(C(=O)O)cc2)n1 [Example 43] | 23 |
| Cc1nc(C)c(C2CCCN(c3ccc(C(=O)O)c(O)c3)C2)s1 (stereo not shown) [Example 122] | > 250 |
| Cc1nc(COc2ncccn2)sc1-c1cccc(-c2cnc(C(=O)O)nc2)n1 [Example 85] | > 25 |
| Cc1nc(COCC2CCCCO2)sc1-c1cccc(-c2ccc(C(=O)O)cc2)c1 (stereo not shown) [Example 45] | 1.4 |
| Cc1nc(COc2ncccn2)sc1-c1cccc(-c2ccc(C(=O)N[C@@H](C(=O)O)c3ccccc3)cc2)n1 [Example 36] | 2.7 |
| Cc1nc(C)c(NC(=O)Nc2ccc(C(=O)O)c(O)c2)s1 [Example 337] | > 25 |
| O=C(O)c1ccc(-c2nc(-c3ccnc(COc4ncccn4)c3)cs2)cc1 [Example 37] | 7.6 |
| Cc1nc(COc2ccccn2)sc1-c1cccc(-c2ccc(C(=O)O)cn2)c1 [Example 69] | 5.5 |
| Cc1ccc(C#N)c(OCC(=O)N2CCC(c3cccc(-c4ccc(C(=O)O)c(O)c4)c3)C2)n1 (stereo not shown) [Example 328] | 45 |
| Cc1nc(C(=O)O)sc1-c1cccc(-c2cc(F)c3[nH]nnc3c2F)n1 [Example 342] | 1.9 |
| Cc1nc(COc2ncccn2)sc1-c1cccc(-c2ccc(C(=O)O)c(C(F)F)c2)n1 [Example 54] | 0.18 |
| Cc1ccc(C#N)c(OCc2nc(C)c(-c3cccc(-c4ccc(C(=O)O)c(O)c4)c3)s2)n1 [Example 268] | 1.2 |
| Cc1nc(COc2ccccn2)sc1-c1cccc(-c2ccc(C(=O)O)cc2)n1 [Example 57] | > 25 |
| COC(=O)NCc1nc(C)c(-c2csc(-c3cc(NC(=O)OC)c(C(=O)O)cc3F)n2)s1 [Example 196] | 5.6 |
| Cc1nc(C)c(CCOc2ccc(C(=O)O)c(O)c2)s1 [Example 336] | > 25 |
| Cc1nc(COc2ccc(F)cn2)sc1-c1cccc(-c2ccc(C(=O)O)c(C(F)F)c2)n1 [Example 22] | 0.29 |
| Cc1nc(C)c(-c2cc(-c3ccc(C(=O)O)c(O)c3)ccn2)s1 [Example 293] | 9.3 |

| SMILES | IC50 [µM] |
| --- | --- |
| Cc1nc(C)c(-c2ccnc(-c3ccc(C(=O)O)c(O)c3)c2)s1 [Example 310] | 2 |
| Cc1nc(CCc2ccccc2)sc1-c1cccc(-c2ccc(C(=O)O)c(O)c2)c1 [Example 109] | 8.1 |
| Cc1nc(OCC2CCCCO2)sc1-c1cccc(-c2ccc(C(=O)O)cc2)n1 (stereo not shown) [Example 41] | 19 |
| Cc1nc(CO)sc1-c1cccc(-c2ccc(C(=O)NCC(=O)N3CCC(C(=O)O)CC3)cc2)n1 [Example 89] | > 25 |
| Cc1nc(C)c(-c2coc(-c3ccc(C(=O)O)c(O)c3)n2)s1 [Example 271] | 8 |
| Cc1nc(COc2ncccn2)sc1-c1nc(-c2ccc(C(=O)O)cc2)cs1 [Example 34] | 0.34 |
| Cc1nc(Cc2ccccc2C(F)(F)F)sc1-c1cccc(-c2ccc(C(=O)O)c(O)c2)c1 [Example 320] | 7 |
| Cc1nc(C)c(-c2cccc(-c3ccc(C(=O)O)c(O)c3)n2)s1 [Example 302] | 1.2 |
| COC(=O)NCc1ccc(-c2csc(-c3cc(O)c(C(=O)O)cc3F)n2)cn1 [Example 187] | 1.7 |
| Cc1ccc(C#N)c(OCCc2cnn(-c3cccc(-c4ccc(C(=O)O)c(O)c4)c3)c2)n1 [Example 303] | 17 |
| Cc1nc(COc2ncccn2)sc1-c1cccc(-c2ccc(C(=O)N3CCC(OCC(=O)O)CC3)cc2)n1 [Example 84] | > 25 |
| Cc1nc(COc2ncccn2)sc1-c1cccc(-c2ccc(C(=O)NC(CC(=O)O)c3ccccc3)cc2)n1 (stereo not shown) [Example 35] | 2.6 |
| O=C(O)c1ccc(-c2nc(-c3ccnc(CO)c3)cs2)cc1 [Example 38] | > 25 |
| Cc1ccc(C#N)c(OCCc2ccn(-c3cccc(-c4ccc(C(=O)O)c(O)c4)c3)n2)n1 [Example 311] | 21 |
| Cc1ccc(C#N)c(OCC(=O)N2CC(c3cccc(-c4ccc(C(=O)O)cc4)c3)C2)n1 [Example 322] | > 250 |
| Cc1nc(COCC(C)(C)O)sc1-c1cccc(-c2ccc(C(=O)O)c(O)c2)c1 [Example 335] | 0.31 |
| Cc1cc(-c2ccc(C(=O)O)cc2)cc(-c2sc(C)nc2C)c1 [Example 300] | 160 |
| Cc1nc(Cc2cccc(C#N)c2)sc1-c1cccc(-c2ccc(C(=O)O)c(O)c2)c1 [Example 308] | 1 |
| Cc1nc(C)c(-c2ccc(=O)n(-c3ccc(C(=O)O)c(O)c3)c2)s1 [Example 319] | > 250 |
| Cc1nc(C)c(-c2csc(-c3ccc(C(=O)O)cc3)n2)s1 [Example 291] | 3.3 |
| Cc1nc(COc2ccc(F)cn2)sc1-c1ccn(-c2ccc(C(=O)O)cc2)n1 [Example 18] | 0.65 |
| Cc1nc(C)c(-c2ccc(O)c(-c3ccc(C(=O)O)cc3)c2)s1 [Example 304] | 54 |
| Cc1nc(C)c(-c2nc(-c3cc(O)c(C(=O)O)cc3F)sc2C)s1 [Example 241] | 21 |
| Cc1nc(COc2ccc(F)cn2)sc1-c1ccn(-c2ccc(C(=O)O)c(O)c2)n1 [Example 21] | 0.29 |

| SMILES | IC50 [µM] |
| --- | --- |
| CN(C)C(=O)OCC1CCN(c2cccc(-c3ccc(C(=O)O)cc3)n2)CC1 [Example 25] | > 25 |
| Cc1nc(Cc2ccccn2)sc1-c1cccc(-c2ccc(C(=O)O)cc2)c1 [Example 287] | 0.91 |
| Cc1nc(C(C)C)sc1-c1cccc(-c2ccc(C(=O)O)c(O)c2)c1 [Example 324] | 2.3 |
| Cc1nc(COc2ccc(F)cn2)sc1-c1ccn(-c2ccc(C(=O)O)c(C(F)F)c2)n1 [Example 17] | 0.89 |
| O=C(O)c1ccc(-c2cccc(N3CCC(COc4ncccn4)CC3)n2)cc1 [Example 24] | > 25 |
| Cc1nc(CNC(C)C)sc1-c1csc(-c2cc(O)c(C(=O)O)cc2F)n1 [Example 176] | 0.89 |
| Cc1nc(Cc2ccccc2F)sc1-c1cccc(-c2ccc(C(=O)O)c(O)c2)c1 [Example 104] | 1.5 |
| Cc1nc(CNCC(C)(C)C)sc1-c1cccc(-c2ccc(C(=O)O)cc2)c1 [Example 42] | > 25 |
| CNC(=O)CCc1nc(C)c(-c2cccc(-c3ccc(C(=O)O)c(O)c3)c2)s1 [Example 264] | 7 |
| Cc1nc(CO[C@@H]2CCCOC2)sc1-c1cccc(-c2ccc(C(=O)O)cc2)c1 [Example 47] | 0.98 |
| COC(=O)NCc1nc(C)c(-c2csc(-c3cc(N)c(C(=O)O)cc3F)n2)s1 [Example 195] | 1.2 |
| Cc1nc(C)c(-c2cccc(-c3ccc(O)c(C(=O)O)c3)c2)s1 [Example 318] | 4.8 |
| Cc1nc(CN2CCOCC2)sc1-c1cccc(-c2ccc(C(=O)O)c(O)c2)c1 [Example 296] | 3.7 |
| COC(=O)NCc1nc(C)c(-c2cc(-c3ccc(C(=O)O)c(O)c3)sn2)s1 [Example 157] | 0.8 |
| Cc1ccc(C#N)c(OCCn2cc(-c3cccc(-c4ccc(C(=O)O)c(O)c4)c3)cn2)n1 [Example 110] | 8.8 |
| Cc1nc(COc2ncccn2)sc1-c1cccc(-c2ccc(C(=O)O)c(C(=O)O)c2)n1 [Example 70] | 11 |
| Cc1nc(COC2CCCCO2)sc1-c1cccc(-c2ccc(C(=O)O)cc2)n1 (stereo not shown) [Example 55] | 0.38 |
| Cc1ccc(C#N)c(OCCc2nc(C)c(-c3cccc(-c4ccc(C(=O)O)c(O)c4)c3)s2)n1 [Example 107] | 1.9 |
| Cc1nc(C)c(-c2ccn(-c3ccc(C(=O)O)c(O)c3)n2)s1 [Example 288] | 3.8 |
| Cc1nc(COc2ccc(F)cn2)sc1-c1cccc(-c2ccc(C(=O)O)c(C(F)F)c2)c1 [Example 29] | 1.8 |
| Cc1nc(COc2ncccn2)sc1-c1cccc(-c2cc(C(=O)O)nn2C)n1 [Example 27] | 7.4 |
| CC(=O)NCCc1nc(C)c(-c2cccc(-c3ccc(C(=O)O)c(O)c3)c2)s1 [Example 258] | 11 |
